The results in this text go back to US9187411B2, “Leukotriene B4 antagonist compound” (Eli Lilly and Company, priority 2012, dated 2015).

Assay [1] deals with LTB4-induced CD11b expression in neutrophils. The assay can be described thus: CD11b assay, human whole blood. The assay is classed as cell-based. As to conditions: Neutrophil, 10 nM LTB4. As for the experimental part:
EDTA anti-coagulated blood is collected from human donors or mice as before. For in vitro experiments, 8 or 10 point dose response curves of test compounds are assayed at final concentrations of 78 nM-10 μM or 20 nM-10 μM respectively. ½ serial dilutions of compound at 1000× of final assayed concentration are prepared in DMSO. Compound is then diluted to 10× in DPBS (DMSO concentration is now 1%). 10 μL of compound dilutions (at 10× in DPBS) or 1% DMSO in DPBS are added to wells of a 96 deep well plate. 90 μL whole blood is added and incubated 20 min at room temperature. 11 μL of 10×LTB4 (final concentration 25 nM for mouse or 10 nM human) is added and incubated at 37° C. for 30 min. The reaction is stopped by incubating the plate on ice for 5 min. The cells are stained with 10 μL anti-mouse or anti-human CD11b-PE (BD Biosciences diluted 1:20 for mouse and undiluted for human) and incubated on ice for 30 min in the dark (for mouse experiments, 10 μL anti-mouse LY6G-FITC antibody (BD Pharmingen) diluted 1:25 is added for the final 10 min) Red blood cells (RBCs) are lysed by adding 1.5 mL of 1×BD FACSlyse (BD Biosciences) and incubating for 10 min at room temperature in the dark. […] Data are analyzed with WinList software (Verity Software House) to determine mean and median fluorescent intensity values for CD11b-PE from neutrophil population.

Assay [2] relates to LTB4-induced phosphorylation of ERK in monocytes. The assay can be described thus: Mouse pERK assay in whole blood. In kind it is cell-based, 129SvEv mice. To be noted: Monocyte, 20 nM LTB4. The procedure: The ability of the compound of Example 2 to block LTB4-induced signaling through BLT1 was assessed in whole blood obtained from healthy human volunteers and from 129SvEv mice that are the model strain for preclinical AAA efficacy evaluation.
Whole blood is collected from 129SvEv mice in 50 mM EDTA (Gibco). For in vitro experiments, 10 point dose response curves of test compounds are assayed at final concentrations of 20 nM-10 μM. 10 point ½ serial dilutions of compound at 1000× of final assayed concentration are prepared in DMSO. Compound is then diluted to 10× in DPBS (DMSO concentration is now 1%). 10 μL of compound dilutions (at 10× diluted in DPBS) or 1% DMSO in DPBS are added to wells of a 96 deep well plate. 80 μL whole blood is added and incubated for 20 min at room temperature (10 μL of anti-mouse LY6G-FITC antibody (BD Pharmingen) and 10 μl of anti-mouse CD11b-APC BD Biosciences at 1 μg/mL final concentrations are added for final 10 min) 11 μL of 10× pre-warmed LTB4 (final concentration 20 nM) is added and incubated at 37° C. for 2 min. Reaction is stopped with 1.5 mL of 1× Phosflow Lyse/Fix from BD Biosciences (pre-warmed to 37° C.). The plate is sealed, vortexed, and incubated at 37° C. for 10 min. Cells are washed once with 1.5 mL DPBS then permeablized with 1 mL BD Perm/Wash buffer (BD Biosciences) for 10 min at room temperature. […]

One may read the IC50 as the concentration at which inhibition is half-maximal. Low readings indicate inhibition by little substance, high ones a need for much substance. Regarding `CCCc1c(NC(=O)CC(C)(C)C(=O)[O-])cccc1OCCCOc1cc(O)c(-c2ccc(F)cc2)cc1CC.[Na+]` [Example 2, Sodium 4-[[3-[3-[2-ethyl-4-(4-fluorophenyl)-5-hydroxy-phenoxy]propoxy]-2-propyl-phenyl]amino]-2,2-dimethyl-4-oxo-butanoate], the values for the IC50 in assay [1] and in assay [2] were 193 nM and 243 nM, respectively.
